# Where no end group is shown, it is not given here.
# System: PSMA Fab
# Experiment: Phage binding ELISA, PSMA Fab, with or without PSMA antigen (peptide-179 and peptide-180 libraries)
# Details: peptide-180 library clonal phage; background (no Fab)
# Description: (§1) Once the phage optimization libraries were completed, phage libraries were bio-panned using PSMA Fab loaded beads. Multiple rounds of panning were performed where bacteriophage was allowed to bind to PSMA Fab loaded beads. washed. eluted, and amplified. After panning, phage infected bacteria were plated out and colonies picked into 96 well blocks. Clonal phage was then amplified and separated from bacterial cells via centrifugation. Phage containing supemnatants were tested in binding ELISAs against PSMA Fab coated plates in the presence or absence of saturating concentrations of PSMA antigen. Phage able to bind PSMA Fab were selected for sequence analysis if the binding signal was reduced in the presence of PSMA.
# Clonal phage were harvested as crude supernatants and screened via standard ELISAs. Briefly, biotinylated PSMA Fab was captured on neutravidin coated plates. Prior to the addition of clonal phage. wells were incubated with blocking buffer and PSMA antigen or blocking buffer alone. Without washing or aspirating, clonal phage supernatants were then added to the wells and incubated for a short time. Wells were then washed followed by detection of bound phage using a horse radish conjugated anti-M13 antibody. Clonal phage of interest were then sent for sequence analysis.
# as §1, with “beads, washed,” for “beads. washed.”, “supernatants” for “supemnatants”
# Sequence of PSMA Fab (as listed by the source): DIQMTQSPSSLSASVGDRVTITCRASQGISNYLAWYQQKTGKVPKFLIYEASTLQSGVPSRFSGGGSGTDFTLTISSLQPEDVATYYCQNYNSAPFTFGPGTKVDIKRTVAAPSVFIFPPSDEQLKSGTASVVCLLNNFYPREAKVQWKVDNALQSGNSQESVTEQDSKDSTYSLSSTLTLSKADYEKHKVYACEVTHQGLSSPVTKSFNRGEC
# Sequence of PSMA Fab (as listed by the source): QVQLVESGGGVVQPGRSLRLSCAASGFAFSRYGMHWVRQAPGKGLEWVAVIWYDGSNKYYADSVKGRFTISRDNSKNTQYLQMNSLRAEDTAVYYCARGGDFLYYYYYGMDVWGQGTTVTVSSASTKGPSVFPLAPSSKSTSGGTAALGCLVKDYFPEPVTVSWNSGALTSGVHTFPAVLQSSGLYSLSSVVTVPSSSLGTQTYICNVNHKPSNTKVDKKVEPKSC
row,Substance,Phage binding ELISA Background signal
1,Phage-2818 (SVHMCKPPWMCQSM),0.0587
2,Phage-2839 (DSHWCMPVWMCMGL; not fully specified; cysteine pairing not given here),0.0737
3,Phage-2795 (FEKWCTPQWMCNSM),0.0569
4,Phage-2790 (VMKWCTPSWMCAEA),0.067
5,Phage-2817 (EAKWCTPPWMCSLV),0.0615
6,Phage-2852 (VMPLCKPAWMCGGF; not fully specified; cysteine pairing not given here),0.0869
7,Phage-2806 (GATWCTPTWMCTGF),0.0609
8,Phage-2835 (VAKLCTPAWMCSAM; not fully specified; cysteine pairing not given here),0.0643
9,Phage-2837 (VDRWCTPPWMCDWQ; cysteine pairing not given here; also: large carrier left off),0.0583
10,Phage-2841 (ESIRCTPAWMCVEM; not fully specified; cysteine pairing not given here),0.0625
11,Phage-2860 (EWILCKPAWMCDGL; not fully specified; cysteine pairing not given here),0.051
12,Phage-2838 (HPKLCTPEWMCVIQ; not fully specified; cysteine pairing not given here),0.0666
13,Phage-2866 (TSPACVPSWMCVGF),0.0552
14,Phage-2814 (PMKWCTPPWMCSYS),0.0793
15,Phage-2842 (PEVMCRPVWMCLGF; not fully specified; cysteine pairing not given here),0.0609
16,Phage-2836 (DWKLCKPTWMCESL; not fully specified; cysteine pairing not given here),0.0582
17,Phage-2800 (DYKWCTPPWMCDSR),0.0795
18,Phage-2789 (VGKWCTPEWMCSGF),0.058
19,Phage-2862 (TGAYCVPQWMCSGF; not fully specified; cysteine pairing not given here),0.0638
20,Phage-2845 (WDMLCRPAWMCEGF; not fully specified; cysteine pairing not given here),0.0711
21,Phage-2851 (DMRLCVPEWMCLGL; not fully specified; cysteine pairing not given here),0.0889

row,Substance,Phage binding ELISA Background signal
1,Phage-2799 (ESKWCVPTWMCAEN),0.0516
2,Phage-2808 (MEKWCTPRWMCVGM),0.0767
3,Phage-2861 (WDRLCIPAWMCSGF; not fully specified; cysteine pairing not given here),0.0903
4,Phage-2865 (MSPLCKPVWMCAGF),0.0586
5,Phage-2810 (MDIWCKPRWMCEEY),0.0644
6,Phage-2792 (TQHWCTPIWMCEGL),0.0865
7,Phage-2793 (VTNWCTPPWMCEML),0.0676
8,Phage-2804 (EGKWCTPTWMCQGF),0.0669
9,Phage-2854 (VHIMCKPAWMCLGF; not fully specified; cysteine pairing not given here),0.0917
10,Phage-2867 (VLPMCSPPWMCIGL),0.0631
11,Phage-2857 (LERACVPSWMCTGF; not fully specified; cysteine pairing not given here),0.0649
12,Phage-2803 (VKHVCMPEWMCYWS),0.0652
13,Phage-2798 (HFKWCIPPWMCLEI),0.0798
14,Phage-2850 (VNIRCEPAWMCMGF; not fully specified; cysteine pairing not given here),0.0727
15,Phage-2791 (WEKWCTPSWMCSGI),0.0564
16,Phage-2809 (VTKLCIPEWMCVIQ),0.0543
17,Phage-2847 (WMPRCVPEWMCAGF; not fully specified; cysteine pairing not given here),0.1667
18,Phage-2859 (WEFVCKPEWMCTGF; not fully specified; cysteine pairing not given here),0.0551
19,Phage-2856 (VQRMCEPSWMCFGF; not fully specified; cysteine pairing not given here),0.0631
20,Phage-2869 (WPQLCVPMWMCAGL),0.1456
21,Phage-2844 (VVAMCKPAWMCAGL; not fully specified; cysteine pairing not given here),0.0591

row,Substance,Phage binding ELISA Background signal
1,Phage-2794 (TEKWCIPQWMCVRT),0.056
2,Phage-2812 (VGPWCIPDWMCDVV),0.0572
3,Phage-2796 (LNNWCTPAWMCVGY),0.0697
4,Phage-2801 (SDNWCKPEWMCVGH),0.0738
5,Phage-2797 (ERIWCTPKWMCETF),0.0696
6,Phage-2805 (MMHWCTPPWMCEFS),0.0597
7,Phage-2788 (SVKWCTPSWMCTEW),0.0817
8,Phage-2868 (EPIRCVPQWMCVGF),0.0882
9,Phage-2811 (VPKWCTPSWMCEFT),0.0593
10,Phage-2840 (EPQWCIPKWMCDHM; not fully specified; cysteine pairing not given here),0.0612
11,Phage-2864 (IETWCVPRWMCEGF),0.0693
12,Phage-2807 (WENWCIPQWMCGTA),0.1629
13,Phage-2853 (MLPLCVPAWMCSGF; not fully specified; cysteine pairing not given here),0.061
14,Phage-2802 (TPKWCTPAWMCVVS),0.0829
15,Phage-2863 (FNVMCRPAWMCDFL; not fully specified; cysteine pairing not given here),0.1545
16,Phage-2813 (FSKLCTPPWMCSVS),0.0586
17,Phage-2858 (TQAMCKPAWMCQGF; not fully specified; cysteine pairing not given here),0.0585
18,Phage-2849 (VFPICKPSWMCVGM; not fully specified; cysteine pairing not given here),0.0918
19,Phage-2846 (WEVRCVPEWMCVGF; not fully specified; cysteine pairing not given here),0.0615
20,Phage-2855 (WEMKCIPEWMCRGF; cysteine pairing not given here; also: large carriers left off),0.0794
